From ChEMBL document CHEMBL5143536, “Dihydroartemisinin improves hypercholesterolemia in ovariectomized mice via enhancing vectorial transport of cholesterol and bile acids from blood to bile” (Bioorg Med Chem, 2022)
Active and inactive are the calls of the source.

Assays:
Assay type in all cases: functional, organism-based
Mus musculus [1] = test: Hypocholesterolemic activity in OVX-induced C57BL/6 mouse model assessed as decrease in number of lipid droplet concentration in liver at 150 mg/kg, ig for 4 weeks by H and E staining based assay
Mus musculus [2] = test: Hypocholesterolemic activity in OVX-induced C57BL/6 mouse model assessed as increase in Slcob2 mRNA expression in liver in liver at 150 mg/kg, ig for 4 weeks by qRT-PCR analysis
Mus musculus [3] = test: Hypocholesterolemic activity in OVX-induced C57BL/6 mouse model assessed as increase in Fasn protein expression in liver at 150 mg/kg, ig for 4 weeks by western blot analysis
Mus musculus [4] = test: Hypocholesterolemic activity in OVX-induced C57BL/6 mouse model assessed as decrease in Slc10a2 mRNA expression in Ileum at 150 mg/kg, ig for 4 weeks by qRT-PCR analysis
Mus musculus [5] = test: Hypocholesterolemic activity in OVX-induced C57BL/6 mouse model assessed as increase in Abcg8 protein expression in liver in liver at 150 mg/kg, ig for 4 weeks by western blot analysis
Mus musculus [6] = test: Hypocholesterolemic activity in OVX-induced C57BL/6 mouse model assessed as increase in Slc10a1 mRNA expression in liver in liver at 150 mg/kg, ig for 4 weeks by qRT-PCR analysis
Mus musculus [7] = test: Hypocholesterolemic activity in OVX-induced C57BL/6 mouse model assessed as increase in ACACa protein expression in liver at 150 mg/kg, ig for 4 weeks by western blot analysis
Mus musculus [8] = test: Hypocholesterolemic activity in OVX-induced C57BL/6 mouse model assessed as increase in Abcg8 mRNA expression in liver in liver at 150 mg/kg, ig for 4 weeks by qRT-PCR analysis
Mus musculus [9] = test: Hypocholesterolemic activity in OVX-induced C57BL/6 mouse model assessed as increase in Scd1 mRNA expression in liver at 150 mg/kg, ig for 4 weeks by qRT-PCR analysis
Mus musculus [10] = test: Hypocholesterolemic activity in OVX-induced C57BL/6 mouse model assessed as increase in CD36 mRNA expression in liver at 150 mg/kg, ig for 4 weeks by qRT-PCR analysis
Mus musculus [11] = test: Hypocholesterolemic activity in OVX-induced C57BL/6 mouse model assessed as increase in Elovl5 mRNA expression in liver at 150 mg/kg, ig for 4 weeks by qRT-PCR analysis
Mus musculus [12] = test: Hypocholesterolemic activity in OVX-induced C57BL/6 mouse model assessed as decrease in Fabp6 mRNA expression in Ileum […] at 150 mg/kg, ig for 4 weeks by qRT-PCR analysis
Mus musculus [13] = test: Hypocholesterolemic activity in OVX-induced C57BL/6 mouse model assessed as decrease in size of lipid droplet concentration in […] at 150 mg/kg, ig for 4 weeks by H and E staining based assay; details: Liver
Mus musculus [14] = test: Hypocholesterolemic activity in OVX-induced C57BL/6 mouse model assessed as increase in Elovl6 mRNA expression in liver at 150 mg/kg, ig for 4 weeks by qRT-PCR analysis
Mus musculus [15] = test: Hypocholesterolemic activity in OVX-induced C57BL/6 mouse model assessed as increase in Cyp7b1 mRNA expression in liver in liver at 150 mg/kg, ig for 4 weeks by qRT-PCR analysis
Mus musculus [16] = test: Hypocholesterolemic activity in OVX-induced C57BL/6 mouse model assessed as increase in Abcb1a mRNA expression in liver in liver at 150 mg/kg, ig for 4 weeks by qRT-PCR analysis
Mus musculus [17] = test: Hypocholesterolemic activity in OVX-induced C57BL/6 mouse model assessed as increase in Fasn mRNA expression in liver at 150 mg/kg, ig for 4 weeks by qRT-PCR analysis
Mus musculus [18] = test: Hypocholesterolemic activity in OVX-induced C57BL/6 mouse model assessed as increase in Abcg5 protein expression in liver in liver at 150 mg/kg, ig for 4 weeks by western blot analysis
Mus musculus [19] = test: Hypocholesterolemic activity in OVX-induced C57BL/6 mouse model assessed as decrease in TC concentration in serum at 150 mg/kg, ig for 4 weeks
Mus musculus [20] = test: Hypocholesterolemic activity in OVX-induced C57BL/6 mouse model assessed as decrease in LDL-C concentration in serum at 150 mg/kg, ig for 4 weeks
Mus musculus [21] = test: Hypocholesterolemic activity in OVX-induced C57BL/6 mouse model assessed as increase in Abcb4 mRNA expression in liver in liver at 150 mg/kg, ig for 4 weeks by qRT-PCR analysis
Mus musculus [22] = test: Hypocholesterolemic activity in OVX-induced C57BL/6 mouse model assessed as increase in HDL-C concentration in serum at 150 mg/kg, ig for 4 weeks
Mus musculus [23] = test: Hypocholesterolemic activity in OVX-induced C57BL/6 mouse model assessed as increase in SCD1 protein expression in liver at 150 mg/kg, ig for 4 weeks by western blot analysis
Mus musculus [24] = test: Hypocholesterolemic activity in OVX-induced C57BL/6 mouse model assessed as increase in Abcg5 mRNA expression in liver in liver at 150 mg/kg, ig for 4 weeks by qRT-PCR analysis
Mus musculus [25] = test: Hypocholesterolemic activity in OVX-induced C57BL/6 mouse model assessed as increase in CD36 protein expression in liver at 150 mg/kg, ig for 4 weeks by western blot analysis

Measured: Activity

C[C@H]1[C@@H](O)O[C@@H]2O[C@@]3(C)CC[C@H]4[C@H](C)CC[C@@H]1[C@@]24OO3
active: all assays above
